Assays:
Format in all cases: physicochemical
[1] = Gelation test: gelator effectiveness (Geff) and minimal gelation concentration in solvents and solvent mixtures; parameters: key to Gelator effectiveness (Geff): sol.: soluble; ins.: insoluble; cr.: crystallization; [A]: gel/sol mixture; details: for Gelator effectiveness (Geff): Table 1
Description: Gelation observed for selected gelator–solvent pairs is expressed by gelator effectiveness (Geff, mL) corresponding to the maximal volume of solvent that could be immobilized by 10 mg of the gelator (Table 1). […] However, 3a and 5a also gelled small to moderate volumes of EtOH and rac-2-octanol, whilst Leu incorporating 1a formed gels with the more lipophilic solvents, decalin and tetralin. […] Apparently, the retro-peptides incorporating aliphatic and aromatic amino acids are less versatile gelators compared to retro-peptides containing […] amino acid fragments. The latter points to the importance of intermolecular lipophilic interactions for the stabilization of gel assemblies being stronger in the case of identical amino acids either lipophilic or aromatic, and weaker for mixed aromatic-lipophilic amino acid fragments present in the gelator molecule.

[2] = as above
[3] = TEM of gel networks (PWK negative staining), fiber diameters; details: water/DMSO gel
Excerpt: TEM images of diastereomeric (S,S)-1a and (S,R)-1a water/DMSO gels (Figure 2 and Figure 3) show highly distinct morphology of gel networks. In the first gel rather straight fibers and fiber bundles with diameters in the range of 40–100 nm could be observed. […] As observed earlier for other gel systems, gelator effectiveness Geff depends not only solubility but also depends on the thickness of fibers constituting the network. […] The TEM observed thicknesses of gel aggregates existing in water/DMSO and toluene gels could be also correlated with gelator effectiveness (Geff, mL, see Table 1 and Table 2). It appears that (S,R)-1b (Geff 19.5 mL, water/DMSO gel) organized in thinner fibers is more than twice effective a gelator than its diasteroisomer (S,S)-1a (Geff 8.0 mL, water/DMSO gel) which forms thicker fiber bundles. In the toluene gel, (S,R)-1b organizes into wide and short tapes with low networking capacity which is reflected in a very low (Geff 0.15 mL) gelator effectiveness. page 11: TEM and SEM investigations: transmission electron micrographs were taken on an EM 10 A Zeiss or FEI Morgagni 268D transmission electron microscope. A small amount of sample was placed on carbon-coated grid (copper, 100 mesh). The sample was negatively stained with PWK (dipotassium phosphotungstate). […]

Gelator effectiveness (Geff) ([1]; max. volume immobilized by 10 mg gelator, CH2Cl2): ins. | Gelator effectiveness (Geff) ([1]; max. volume immobilized by 10 mg gelator, CH3CN): cr. | Gelator effectiveness (Geff) ([1]; max. volume immobilized by 10 mg gelator, EtOH): sol. | Gelator effectiveness (Geff) ([1]; max. volume immobilized by 10 mg gelator, H2O/DMF mixture, given as volume + volume): 5.84+3.25 mL | Gelator effectiveness (Geff) ([1]; max. volume immobilized by 10 mg gelator, H2O/DMSO mixture, given as volume + volume): 5.09+2.98 mL | Gelator effectiveness (Geff) ([1]; max. volume immobilized by 10 mg gelator, THF): sol. | Gelator effectiveness (Geff) ([1]; max. volume immobilized by 10 mg gelator, decalin): 0.2 mL | Gelator effectiveness (Geff) ([1]; max. volume immobilized by 10 mg gelator, p-xylene): ins. | Gelator effectiveness (Geff) ([1]; max. volume immobilized by 10 mg gelator, tetralin): 1.8 mL | Gelator effectiveness (Geff) ([1]; max. volume immobilized by 10 mg gelator, toluene): cr. | Gelator effectiveness (Geff) ([1]; max. volume immobilized by 10 mg gelator, ±2-octanol): ins. | Gelator effectiveness (Geff) ([1]; maximal volume of solvent immobilized by 10 mg of gelator, solvent H2O): ins. | Geff, total volume ([1]; water/DMSO gel, total of both solvent volumes, 10 mg gelator): 8.0 mL | times more effective in gelation than 3a and 5a ([1]; water/DMSO or DMF mixtures): more than 2 times | solubility in water [2]: insoluble | fiber / fiber bundle diameter [3]: 40–100 nm
SMILES: CC(C)C[C@H](NC(=O)[C@H](CC(C)C)NC(=O)C(=O)N[C@@H](CC(C)C)C(=O)N[C@@H](CC(C)C)C(=O)O)C(=O)O [(S,S)-1a, (S,S)-bis(LeuLeu)]
